Laboratory results from ChEMBL document CHEMBL1156290, “Identification of amide bioisosteres of triazole oxytocin antagonists” (Bioorg Med Chem Lett, 2010).

Legend:
Format in all cases: functional
Oxytocin receptor = target: T1, Oxytocin receptor (Homo sapiens, UniProt P30559); assay: Antagonist activity at human cloned OT receptor by cell based beta-lactamase reporter gene assay
T1 sequence (P30559 whole entry): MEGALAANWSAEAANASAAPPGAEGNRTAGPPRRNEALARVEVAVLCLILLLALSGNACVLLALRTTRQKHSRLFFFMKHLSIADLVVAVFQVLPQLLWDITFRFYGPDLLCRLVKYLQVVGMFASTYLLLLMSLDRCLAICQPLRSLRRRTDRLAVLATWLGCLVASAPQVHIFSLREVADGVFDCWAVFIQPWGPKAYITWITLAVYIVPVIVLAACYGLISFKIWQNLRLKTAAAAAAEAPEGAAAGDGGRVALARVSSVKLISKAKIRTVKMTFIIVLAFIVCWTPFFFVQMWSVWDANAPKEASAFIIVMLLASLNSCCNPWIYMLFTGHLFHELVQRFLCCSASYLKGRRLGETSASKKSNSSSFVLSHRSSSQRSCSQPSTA

Vasopressin V2 receptor = Vasopressin V2 receptor (Homo sapiens, UniProt P30518); assay: Antagonist activity at human cloned vasopressin V2 receptor by cell based beta-lactamase reporter gene assay
Vasopressin V1a receptor = Vasopressin V1a receptor (Homo sapiens, UniProt P37288); assay: Antagonist activity at human cloned vasopressin V1A receptor by cell based beta-lactamase reporter gene assay
[1] = target: T2, Vasopressin V1b receptor (Homo sapiens) (UniProt P47901); assay: Antagonist activity at human cloned vasopressin V1B receptor at 10 uM by cell based beta-lactamase reporter gene assay; design: scale not given: the % may be the effect or the level left
T2 sequence (whole entry): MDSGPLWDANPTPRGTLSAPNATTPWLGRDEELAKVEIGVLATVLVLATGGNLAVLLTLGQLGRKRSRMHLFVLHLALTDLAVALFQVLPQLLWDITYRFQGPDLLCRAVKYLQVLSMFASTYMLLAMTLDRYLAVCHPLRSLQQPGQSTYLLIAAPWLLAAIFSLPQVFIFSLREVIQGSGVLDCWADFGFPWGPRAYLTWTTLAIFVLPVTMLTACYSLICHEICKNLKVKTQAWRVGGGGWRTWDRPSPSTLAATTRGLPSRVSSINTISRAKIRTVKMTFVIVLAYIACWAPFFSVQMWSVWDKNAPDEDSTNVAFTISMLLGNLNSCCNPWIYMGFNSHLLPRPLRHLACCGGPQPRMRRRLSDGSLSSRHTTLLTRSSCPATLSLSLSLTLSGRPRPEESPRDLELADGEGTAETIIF

Chain of Vasopressin V2 receptor (P30518 whole entry): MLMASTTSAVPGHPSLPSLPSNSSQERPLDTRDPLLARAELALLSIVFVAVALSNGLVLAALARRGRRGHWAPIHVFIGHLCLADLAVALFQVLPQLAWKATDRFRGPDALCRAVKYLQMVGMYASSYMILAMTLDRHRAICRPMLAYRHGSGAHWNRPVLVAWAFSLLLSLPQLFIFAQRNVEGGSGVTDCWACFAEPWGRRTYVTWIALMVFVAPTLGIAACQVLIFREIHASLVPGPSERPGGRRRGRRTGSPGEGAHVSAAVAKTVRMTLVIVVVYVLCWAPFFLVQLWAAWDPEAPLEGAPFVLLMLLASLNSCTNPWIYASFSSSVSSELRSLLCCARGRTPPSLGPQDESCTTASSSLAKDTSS
Chain of Vasopressin V1a receptor (P37288 whole entry): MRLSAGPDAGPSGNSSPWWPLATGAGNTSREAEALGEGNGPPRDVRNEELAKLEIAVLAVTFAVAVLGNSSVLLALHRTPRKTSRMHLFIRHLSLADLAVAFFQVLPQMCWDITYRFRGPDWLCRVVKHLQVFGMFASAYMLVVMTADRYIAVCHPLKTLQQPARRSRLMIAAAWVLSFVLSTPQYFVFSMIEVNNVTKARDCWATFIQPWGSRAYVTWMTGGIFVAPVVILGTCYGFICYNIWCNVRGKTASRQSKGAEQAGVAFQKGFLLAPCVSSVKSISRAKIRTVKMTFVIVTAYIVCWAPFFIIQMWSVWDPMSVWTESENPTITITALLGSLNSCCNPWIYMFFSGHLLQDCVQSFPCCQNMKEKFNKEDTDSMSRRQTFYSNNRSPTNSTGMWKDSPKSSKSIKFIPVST

| Ki (Oxytocin receptor) | Ki (Vasopressin V2 receptor) | Ki (Vasopressin V1a receptor) | Activity [1] | Compound |
| --- | --- | --- | --- | --- |
| 29 nM | 343 nM | 5900 nM |  | CCN(C(=O)c1cnc(-c2cccc(F)c2C)cn1)c1ccc(OC)nc1 |
| 393 nM | > 10000 nM | 7200 nM |  | CCN(C(=O)c1cnc(-c2ccc(C#N)cc2C)cn1)c1ccc(OC)nc1 |
| 25 nM | 2830 nM | 472 nM | < 20% | CCN(C(=O)c1cnc(-c2cccc(C)c2C)cn1)c1ccc(OC)nc1 |
| 433 nM | > 10000 nM | 12000 nM |  | COCCN(C(=O)c1cnc(-c2ccc(C#N)cc2C)cn1)c1ccc(OC)nc1 |
| 92 nM | > 10000 nM | 1100 nM |  | COc1ccc(N(C)C(=O)c2cnc(-c3ccccc3C)cn2)cn1 |
| 150 nM | > 10000 nM | > 10000 nM |  | COc1ccc(N(C(=O)c2cnc(-c3ccccc3C)cn2)C(C)C)cn1 |
| 129 nM | > 10000 nM | 2300 nM |  | CCN(C(=O)c1cnc(-c2ccccc2C)cn1)c1ccc(OC)nc1 |
| 11 nM | 2400 nM | 539 nM | < 20% | COCCN(C(=O)c1cnc(-c2cccc(C)c2C)cn1)c1ccc(OC)nc1 |
| 115 nM | > 10000 nM | 3300 nM |  | COCCN(C(=O)c1cnc(-c2ccccc2C)cn1)c1ccc(OC)nc1 |
| 218 nM |  | 2000 nM |  | COc1ccc(N(C)C(=O)c2cnc(-c3ccc(F)cc3C)cn2)cn1 |
| 14 nM | 2300 nM | > 10000 nM |  | COc1ccc(N(C(=O)c2cnc(-c3cccc(C)c3C)cn2)C(C)C)cn1 |

More lines, now with the values behind:

| Compound | Ki (Oxytocin receptor) | Ki (Vasopressin V2 receptor) | Ki (Vasopressin V1a receptor) | Activity [1] |
| --- | --- | --- | --- | --- |
| CCN(C(=O)c1cc(-c2ccc(C)cc2)n[nH]1)c1ccc(OC)nc1 | 41 nM |  |  |  |
| COCCN(C(=O)c1cnn(-c2ccccc2)c1C)c1ccc(OC)nc1 | 98 nM |  |  |  |
| CCN(C(=O)c1cc2cc(OC)ccc2o1)c1ccc(OC)nc1 | 85 nM |  |  |  |
| CCN(C(=O)COc1ccc(C(C)C)cc1)c1ccc(OC)nc1 | 251 nM |  |  |  |
| CCN(C(=O)c1cnn(-c2ccc(OC)cc2)c1C)c1ccc(OC)nc1 | 91 nM |  |  |  |
| COc1ccc(N(C)C(=O)c2cnc(-c3ccc(C#N)cc3C)cn2)cn1 | 620 nM | > 10000 nM | > 10000 nM |  |
| COc1ccc2oc(C(=O)N(C)c3ccc(OC)nc3)cc2c1 | 232 nM |  |  |  |
| CCN(C(=O)COc1ccc2ccccc2c1)c1ccc(OC)nc1 | 48 nM |  |  |  |
| CCN(C(=O)c1cnn(-c2ccccc2)c1C)c1ccc(OC)nc1 | 85 nM |  |  |  |
| CCN(C(=O)c1ccc(-c2ccc(OC)cc2)[nH]c1=O)c1ccc(OC)nc1 | 84 nM |  |  |  |
| COc1ccc(N(C)C(=O)c2ccc(-c3ccccc3)cc2)cn1 | 90 nM |  |  |  |
| CCN(C(=O)c1ccc(-c2ccccc2)[nH]c1=O)c1ccc(OC)nc1 | 97 nM |  |  |  |
